Data published in ChEMBL document CHEMBL5696441 (Nat Chem Biol, 2011).

Key:
[1] = target: Cyclin-dependent kinase 18 (Homo sapiens) (UniProt Q07002); assay: Inhibition of PCTK3 (unknown origin) assessed as remaining activity at 1 uM by Kinome scan method relative to control
[2] = target: Serine/threonine-protein kinase 32C (Homo sapiens) (UniProt Q86UX6); assay: Inhibition of YANK3 (unknown origin) assessed as remaining activity at 1 uM by Kinome scan method relative to control
[3] = target: Bone morphogenetic protein receptor type-1A (Homo sapiens) (UniProt P36894); assay: Inhibition of BMPR1A (unknown origin) assessed as remaining activity at 1 uM by Kinome scan method relative to control
[4] = target: Mitogen-activated protein kinase kinase kinase 15 (Homo sapiens) (UniProt Q6ZN16); assay: Inhibition of MAP3K15 (unknown origin) assessed as remaining activity at 1 uM by Kinome scan method relative to control
[5] = target: Dual specificity mitogen-activated protein kinase kinase 4 (Homo sapiens) (UniProt P45985); assay: Inhibition of MEK4 (unknown origin) assessed as remaining activity at 1 uM by Kinome scan method relative to control
[6] = target: BMP-2-inducible protein kinase (Homo sapiens) (UniProt Q9NSY1); assay: Inhibition of BIKE (unknown origin) assessed as remaining activity at 1 uM by Kinome scan method relative to control
[7] = target: T1, Calcium/calmodulin-dependent protein kinase type IV (Homo sapiens) (UniProt Q16566); assay: Inhibition of CAMK4 (unknown origin) assessed as remaining activity at 1 uM by Kinome scan method relative to control
T1 sequence (whole entry): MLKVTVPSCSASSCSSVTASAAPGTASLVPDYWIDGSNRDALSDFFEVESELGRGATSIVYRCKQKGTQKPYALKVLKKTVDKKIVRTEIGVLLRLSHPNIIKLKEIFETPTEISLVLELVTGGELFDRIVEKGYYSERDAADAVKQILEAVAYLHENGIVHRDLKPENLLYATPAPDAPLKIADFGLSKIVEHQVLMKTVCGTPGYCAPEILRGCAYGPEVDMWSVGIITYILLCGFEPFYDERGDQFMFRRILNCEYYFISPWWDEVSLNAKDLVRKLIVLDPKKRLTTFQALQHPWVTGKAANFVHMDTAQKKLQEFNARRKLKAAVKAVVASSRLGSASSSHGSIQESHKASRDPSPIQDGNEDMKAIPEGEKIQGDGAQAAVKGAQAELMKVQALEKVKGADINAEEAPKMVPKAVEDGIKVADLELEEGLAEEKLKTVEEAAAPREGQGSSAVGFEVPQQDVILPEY

[8] = system: Tyrosine-protein kinase ABL1 (Homo sapiens), P00519 [F317L]; assay: Inhibition of ABL1 F317L mutant (unknown origin) assessed as remaining activity at 1 uM by Kinome scan method relative to control
[9] = target: Mitogen-activated protein kinase kinase kinase 20 (Homo sapiens) (UniProt Q9NYL2); assay: Inhibition of ZAK (unknown origin) assessed as remaining activity at 1 uM by Kinome scan method relative to control
[10] = target: T2, Serine/threonine-protein kinase D1 (Homo sapiens) (UniProt Q15139); assay: Inhibition of PRKD1 (unknown origin) assessed as remaining activity at 1 uM by Kinome scan method relative to control
T2 sequence (whole entry): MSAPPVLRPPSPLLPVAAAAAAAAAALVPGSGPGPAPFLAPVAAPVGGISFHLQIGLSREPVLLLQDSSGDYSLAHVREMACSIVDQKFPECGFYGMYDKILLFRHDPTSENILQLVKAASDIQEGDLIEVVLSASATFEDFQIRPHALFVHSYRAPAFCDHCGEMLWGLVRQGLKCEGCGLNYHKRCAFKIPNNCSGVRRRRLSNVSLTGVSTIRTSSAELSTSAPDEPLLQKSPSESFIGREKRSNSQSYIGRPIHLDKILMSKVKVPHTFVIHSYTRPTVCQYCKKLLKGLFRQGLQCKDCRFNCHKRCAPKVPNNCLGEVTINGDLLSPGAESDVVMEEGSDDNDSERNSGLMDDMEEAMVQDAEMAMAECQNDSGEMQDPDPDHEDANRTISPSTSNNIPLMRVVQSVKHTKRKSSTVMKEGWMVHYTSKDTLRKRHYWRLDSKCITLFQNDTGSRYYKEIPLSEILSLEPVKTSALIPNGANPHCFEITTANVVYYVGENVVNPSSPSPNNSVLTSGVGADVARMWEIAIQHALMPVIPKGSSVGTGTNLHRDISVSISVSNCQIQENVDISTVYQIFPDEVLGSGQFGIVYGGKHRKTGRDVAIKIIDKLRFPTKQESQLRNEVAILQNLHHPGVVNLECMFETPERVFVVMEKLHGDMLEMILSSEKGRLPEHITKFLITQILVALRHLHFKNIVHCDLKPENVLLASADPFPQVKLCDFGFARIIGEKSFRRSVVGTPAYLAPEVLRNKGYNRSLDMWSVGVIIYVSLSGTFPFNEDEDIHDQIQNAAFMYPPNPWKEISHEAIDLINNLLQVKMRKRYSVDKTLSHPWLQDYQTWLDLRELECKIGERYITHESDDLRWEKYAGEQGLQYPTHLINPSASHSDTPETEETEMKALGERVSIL

[11] = target: Serine/threonine-protein kinase SIK2 (Homo sapiens) (UniProt Q9H0K1); assay: Inhibition of SIK2 (unknown origin) assessed as remaining activity at 1 uM by Kinome scan method relative to control
[12] = target: Cyclin-dependent kinase 9 (Homo sapiens) (UniProt P50750); assay: Inhibition of CDK9 (unknown origin) assessed as remaining activity at 1 uM by Kinome scan method relative to control
[13] = target: Interleukin-1 receptor-associated kinase 1 (Homo sapiens) (UniProt P51617); assay: Inhibition of IRAK1 (unknown origin) assessed as remaining activity at 1 uM by Kinome scan method relative to control
[14] = target: Serine/threonine-protein kinase MRCK beta (Homo sapiens) (UniProt Q9Y5S2); assay: Inhibition of MRCKB (unknown origin) assessed as remaining activity at 1 uM by Kinome scan method relative to control
Serine/threonine-protein kinase MRCK beta (Homo sapiens), sequence (Q9Y5S2 whole entry): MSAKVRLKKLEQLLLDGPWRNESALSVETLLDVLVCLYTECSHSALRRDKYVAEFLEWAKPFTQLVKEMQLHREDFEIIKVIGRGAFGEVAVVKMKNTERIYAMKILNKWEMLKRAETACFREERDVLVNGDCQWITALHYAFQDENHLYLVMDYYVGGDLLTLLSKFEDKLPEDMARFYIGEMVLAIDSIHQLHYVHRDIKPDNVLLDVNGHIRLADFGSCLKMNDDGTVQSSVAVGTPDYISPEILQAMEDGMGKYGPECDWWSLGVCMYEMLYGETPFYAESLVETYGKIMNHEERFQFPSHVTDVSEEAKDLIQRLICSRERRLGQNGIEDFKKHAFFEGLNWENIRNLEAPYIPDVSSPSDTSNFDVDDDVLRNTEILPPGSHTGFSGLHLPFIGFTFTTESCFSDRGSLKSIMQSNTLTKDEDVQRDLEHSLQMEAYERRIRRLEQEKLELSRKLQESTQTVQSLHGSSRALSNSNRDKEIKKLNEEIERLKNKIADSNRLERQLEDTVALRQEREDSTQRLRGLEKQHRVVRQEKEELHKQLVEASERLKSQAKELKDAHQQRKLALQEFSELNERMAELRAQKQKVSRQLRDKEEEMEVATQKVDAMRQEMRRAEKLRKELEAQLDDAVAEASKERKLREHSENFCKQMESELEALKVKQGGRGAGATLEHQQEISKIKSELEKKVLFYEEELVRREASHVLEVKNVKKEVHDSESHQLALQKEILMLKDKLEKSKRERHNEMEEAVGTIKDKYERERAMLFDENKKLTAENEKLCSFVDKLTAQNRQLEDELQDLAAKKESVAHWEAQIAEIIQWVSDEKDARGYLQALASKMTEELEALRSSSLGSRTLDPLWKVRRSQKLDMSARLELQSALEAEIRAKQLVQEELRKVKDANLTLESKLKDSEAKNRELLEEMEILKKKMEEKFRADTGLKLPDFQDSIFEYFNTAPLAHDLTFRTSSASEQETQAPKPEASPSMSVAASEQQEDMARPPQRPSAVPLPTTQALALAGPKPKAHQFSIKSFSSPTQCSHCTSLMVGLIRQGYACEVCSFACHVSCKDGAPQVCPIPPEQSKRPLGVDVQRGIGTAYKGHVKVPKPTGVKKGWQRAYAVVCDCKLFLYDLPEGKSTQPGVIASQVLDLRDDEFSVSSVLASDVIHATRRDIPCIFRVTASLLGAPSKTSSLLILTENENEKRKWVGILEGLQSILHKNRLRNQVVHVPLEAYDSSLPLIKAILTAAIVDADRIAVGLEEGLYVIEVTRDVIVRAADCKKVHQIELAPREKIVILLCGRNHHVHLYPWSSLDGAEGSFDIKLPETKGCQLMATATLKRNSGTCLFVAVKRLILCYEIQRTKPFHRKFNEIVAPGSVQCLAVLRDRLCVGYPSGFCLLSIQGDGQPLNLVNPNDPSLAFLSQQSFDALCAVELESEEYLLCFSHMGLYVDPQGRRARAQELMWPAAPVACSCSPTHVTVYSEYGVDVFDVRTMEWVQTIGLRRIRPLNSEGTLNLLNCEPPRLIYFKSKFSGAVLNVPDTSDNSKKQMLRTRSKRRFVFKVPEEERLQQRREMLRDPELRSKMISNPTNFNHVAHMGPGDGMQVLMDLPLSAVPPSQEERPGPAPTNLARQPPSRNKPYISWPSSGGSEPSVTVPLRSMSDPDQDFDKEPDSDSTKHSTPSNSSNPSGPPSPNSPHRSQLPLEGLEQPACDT

Serine/threonine-protein kinase SIK2 (Homo sapiens), sequence (Q9H0K1 whole entry, looked up): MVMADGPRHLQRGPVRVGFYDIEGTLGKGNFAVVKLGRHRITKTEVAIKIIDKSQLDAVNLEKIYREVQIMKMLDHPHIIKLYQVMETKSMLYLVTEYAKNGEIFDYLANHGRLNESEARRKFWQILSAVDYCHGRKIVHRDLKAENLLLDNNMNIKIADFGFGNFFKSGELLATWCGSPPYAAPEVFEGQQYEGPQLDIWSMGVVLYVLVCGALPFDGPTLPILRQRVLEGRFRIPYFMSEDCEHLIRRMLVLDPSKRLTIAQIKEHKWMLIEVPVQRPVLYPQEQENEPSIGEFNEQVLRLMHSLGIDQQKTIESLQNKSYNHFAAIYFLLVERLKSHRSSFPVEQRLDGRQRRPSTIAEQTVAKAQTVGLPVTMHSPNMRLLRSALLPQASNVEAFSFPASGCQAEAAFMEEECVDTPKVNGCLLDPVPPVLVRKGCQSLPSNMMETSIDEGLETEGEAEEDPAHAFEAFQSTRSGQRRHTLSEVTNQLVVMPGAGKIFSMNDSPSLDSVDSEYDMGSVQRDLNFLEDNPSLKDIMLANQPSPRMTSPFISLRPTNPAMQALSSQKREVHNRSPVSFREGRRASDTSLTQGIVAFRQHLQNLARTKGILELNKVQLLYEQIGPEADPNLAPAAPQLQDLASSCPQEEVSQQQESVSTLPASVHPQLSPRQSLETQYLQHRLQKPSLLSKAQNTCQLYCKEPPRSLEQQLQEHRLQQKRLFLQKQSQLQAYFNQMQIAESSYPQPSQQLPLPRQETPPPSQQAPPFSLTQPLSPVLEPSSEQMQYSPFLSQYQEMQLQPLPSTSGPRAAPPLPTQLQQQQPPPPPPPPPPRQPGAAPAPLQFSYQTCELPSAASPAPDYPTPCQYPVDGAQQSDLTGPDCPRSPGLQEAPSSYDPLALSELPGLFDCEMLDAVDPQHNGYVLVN
Mitogen-activated protein kinase kinase kinase 15 (Homo sapiens), sequence (Q6ZN16 whole entry): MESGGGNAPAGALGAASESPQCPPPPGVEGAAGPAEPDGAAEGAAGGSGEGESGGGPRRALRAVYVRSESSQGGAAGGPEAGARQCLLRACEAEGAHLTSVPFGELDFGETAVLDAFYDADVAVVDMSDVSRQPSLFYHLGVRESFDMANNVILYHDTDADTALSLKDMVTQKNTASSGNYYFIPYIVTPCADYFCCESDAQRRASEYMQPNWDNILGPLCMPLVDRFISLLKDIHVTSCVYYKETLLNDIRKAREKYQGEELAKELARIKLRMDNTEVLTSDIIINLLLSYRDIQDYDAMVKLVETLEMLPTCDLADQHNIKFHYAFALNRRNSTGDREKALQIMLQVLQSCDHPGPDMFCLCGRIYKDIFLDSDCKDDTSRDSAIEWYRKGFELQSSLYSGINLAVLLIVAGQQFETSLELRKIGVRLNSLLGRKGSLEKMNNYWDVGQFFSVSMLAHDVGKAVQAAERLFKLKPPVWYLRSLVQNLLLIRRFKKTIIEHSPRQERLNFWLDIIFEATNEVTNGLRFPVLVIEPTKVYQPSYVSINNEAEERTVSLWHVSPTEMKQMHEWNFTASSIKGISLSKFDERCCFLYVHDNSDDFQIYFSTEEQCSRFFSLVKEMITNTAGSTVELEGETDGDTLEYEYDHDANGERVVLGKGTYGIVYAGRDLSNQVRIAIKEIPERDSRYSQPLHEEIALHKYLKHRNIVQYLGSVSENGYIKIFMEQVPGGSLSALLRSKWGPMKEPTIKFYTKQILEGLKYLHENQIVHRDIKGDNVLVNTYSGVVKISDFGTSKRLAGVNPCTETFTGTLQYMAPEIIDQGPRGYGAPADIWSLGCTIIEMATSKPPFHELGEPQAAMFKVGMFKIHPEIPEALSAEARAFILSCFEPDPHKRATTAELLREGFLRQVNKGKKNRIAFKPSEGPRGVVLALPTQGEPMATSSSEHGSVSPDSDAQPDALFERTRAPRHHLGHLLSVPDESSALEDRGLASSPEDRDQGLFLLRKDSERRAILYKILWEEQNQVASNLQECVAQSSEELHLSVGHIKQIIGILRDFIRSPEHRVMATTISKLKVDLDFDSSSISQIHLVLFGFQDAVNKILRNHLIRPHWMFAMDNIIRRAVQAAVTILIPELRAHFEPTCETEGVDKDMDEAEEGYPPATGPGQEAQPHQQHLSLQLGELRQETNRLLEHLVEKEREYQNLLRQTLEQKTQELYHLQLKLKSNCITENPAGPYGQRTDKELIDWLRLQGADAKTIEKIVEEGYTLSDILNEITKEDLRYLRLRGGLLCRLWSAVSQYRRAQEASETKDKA
Bone morphogenetic protein receptor type-1A (Homo sapiens), sequence (P36894 whole entry): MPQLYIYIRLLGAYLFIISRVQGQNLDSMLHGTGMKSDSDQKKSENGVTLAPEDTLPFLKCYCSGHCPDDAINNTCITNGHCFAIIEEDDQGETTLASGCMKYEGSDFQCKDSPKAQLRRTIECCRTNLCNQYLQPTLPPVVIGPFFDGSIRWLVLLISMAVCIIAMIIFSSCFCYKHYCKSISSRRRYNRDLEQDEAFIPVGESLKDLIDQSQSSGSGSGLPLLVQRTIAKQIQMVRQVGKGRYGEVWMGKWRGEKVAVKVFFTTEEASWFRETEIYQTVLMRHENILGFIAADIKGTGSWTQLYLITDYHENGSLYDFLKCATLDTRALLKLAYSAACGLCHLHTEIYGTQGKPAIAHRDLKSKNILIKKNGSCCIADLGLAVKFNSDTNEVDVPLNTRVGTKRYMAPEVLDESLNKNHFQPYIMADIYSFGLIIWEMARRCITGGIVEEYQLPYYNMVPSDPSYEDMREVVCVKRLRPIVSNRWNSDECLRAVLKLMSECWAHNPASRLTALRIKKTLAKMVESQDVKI
Cyclin-dependent kinase 9 (Homo sapiens), sequence (P50750 whole entry): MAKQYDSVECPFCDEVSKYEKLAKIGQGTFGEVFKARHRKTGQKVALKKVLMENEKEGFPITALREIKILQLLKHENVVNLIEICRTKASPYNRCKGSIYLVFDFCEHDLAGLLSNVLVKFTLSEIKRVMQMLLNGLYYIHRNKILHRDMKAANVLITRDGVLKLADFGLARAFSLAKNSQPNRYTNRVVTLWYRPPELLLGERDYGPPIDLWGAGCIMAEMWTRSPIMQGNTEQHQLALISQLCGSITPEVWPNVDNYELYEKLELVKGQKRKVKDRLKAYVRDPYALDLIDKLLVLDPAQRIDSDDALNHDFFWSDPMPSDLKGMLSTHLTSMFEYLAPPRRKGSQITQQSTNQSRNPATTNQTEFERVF

Structure (SMILES): Nc1ccccc1Nc1ccc2c(c1)CCc1ccccc1C2=O
- Activity [1]: 94%
- Activity [2]: 96%
- Activity [3]: 98%
- Activity [4]: 94%
- Activity [5]: 64%
- Activity [6]: 50%
- Activity [7]: 90%
- Activity [8]: 87%
- Activity [9]: 85%
- Activity [10]: 91%
- Activity [11]: 83%
- Activity [12]: 93%
- Activity [13]: 75%
- Activity [14]: 71%

Structure (SMILES): O=C1c2ccc(Nc3ccc(F)cc3F)cc2CCc2ccc(OC[C@H](O)CO)cc21 [Skepinone-L]
- Activity [1]: 78%
- Activity [2]: 99%
- Activity [3]: 100%
- Activity [4]: 80%
- Activity [5]: 78%
- Activity [6]: 37%
- Activity [7]: 90%
- Activity [8]: 100%
- Activity [9]: 98%
- Activity [10]: 100%
- Activity [11]: 93%
- Activity [12]: 100%
- Activity [13]: 100%
- Activity [14]: 97%
